According to PubChem BioAssay (NCI):
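Compound exposure: 48 hours, 5 concentrations, 96-well plates. Here, GI50 denotes the concentration required for 50% inhibition of growth. Definition used: TGI = concentration required for complete inhibition of growth.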

How the values were obtained:
Assay in all cases: NCI-60 cell line screen, 48 h
LOX IMVI melanoma = tested on: LOX IMVI melanoma
ACHN renal = tested on: ACHN renal
OVCAR-3 ovarian = tested on: OVCAR-3 ovarian
SNB-19 CNS = tested on: SNB-19 CNS
COLO 205 colon = tested on: COLO 205 colon
T-47D breast = tested on: T-47D breast
RXF 393 renal = tested on: RXF 393 renal
MDA-MB-435 = tested on: MDA-MB-435
HOP-62 NSCLC = tested on: HOP-62 NSCLC
NCI-H23 lung = tested on: NCI-H23 lung
HL-60(TB) leukemia = tested on: HL-60(TB) leukemia
M14 melanoma = tested on: M14 melanoma
SR leukemia = tested on: SR leukemia
SF-539 CNS = tested on: SF-539 CNS
SF-268 CNS = tested on: SF-268 CNS
CAKI-1 renal = tested on: CAKI-1 renal
SW-620 colon = tested on: SW-620 colon
HS 578T breast = tested on: HS 578T breast
NCI-H226 lung = tested on: NCI-H226 lung
HCC-2998 colon = tested on: HCC-2998 colon
DU-145 prostate = tested on: DU-145 prostate
A498 renal = tested on: A498 renal
BT-549 breast = tested on: BT-549 breast
MCF7 breast = tested on: MCF7 breast
K-562 leukemia = tested on: K-562 leukemia
MOLT-4 leukemia = tested on: MOLT-4 leukemia
MDA-MB-231 breast = tested on: MDA-MB-231 breast
SF-295 CNS = tested on: SF-295 CNS
SK-OV-3 ovarian = tested on: SK-OV-3 ovarian
UACC-257 melanoma = tested on: UACC-257 melanoma
UO-31 renal = tested on: UO-31 renal
HT29 colon = tested on: HT29 colon
CCRF-CEM leukemia = tested on: CCRF-CEM leukemia
OVCAR-5 ovarian = tested on: OVCAR-5 ovarian
786-0 renal = tested on: 786-0 renal
SN12C renal = tested on: SN12C renal
IGROV1 ovarian = tested on: IGROV1 ovarian
HCT-15 colon = tested on: HCT-15 colon
PC-3 prostate = tested on: PC-3 prostate
SK-MEL-5 melanoma = tested on: SK-MEL-5 melanoma
OVCAR-8 ovarian = tested on: OVCAR-8 ovarian
U251 CNS = tested on: U251 CNS
NCI/ADR-RES ovarian = tested on: NCI/ADR-RES ovarian
SNB-75 CNS = tested on: SNB-75 CNS
KM12 colon = tested on: KM12 colon
SK-MEL-28 melanoma = tested on: SK-MEL-28 melanoma
NCI-H522 lung = tested on: NCI-H522 lung
TK-10 renal = tested on: TK-10 renal
HOP-92 NSCLC = tested on: HOP-92 NSCLC
HCT-116 colon = tested on: HCT-116 colon
SK-MEL-2 melanoma = tested on: SK-MEL-2 melanoma
NCI-H460 lung = tested on: NCI-H460 lung
A549 NSCLC = tested on: A549 NSCLC
RPMI-8226 leukemia = tested on: RPMI-8226 leukemia
EKVX NSCLC = tested on: EKVX NSCLC
UACC-62 melanoma = tested on: UACC-62 melanoma

Compound `CC(=O)OC1Oc2ccc(C)cc2-c2oc(=O)c(-c3cc4ccccc4oc3=O)cc21` (configuration not stated) has a GI50 (LOX IMVI melanoma) of 1.2 µM, a TGI (LOX IMVI melanoma) of 3.71 µM and a GI50 (ACHN renal) of 3.06 µM. It also gave a TGI (ACHN renal) of 11.4 µM, a GI50 (OVCAR-3 ovarian) of 1.19 µM and a TGI (OVCAR-3 ovarian) of 8.15 µM. The GI50 (SNB-19 CNS) was 3.82 µM, the TGI (SNB-19 CNS) was 25.5 µM and the GI50 (COLO 205 colon) was 2.77 µM. For the same compound, the TGI (COLO 205 colon) was 15.7 µM, the GI50 (T-47D breast) was 1.5 µM and the TGI (T-47D breast) was 6.08 µM. The GI50 (RXF 393 renal) was 3.01 µM, the TGI (RXF 393 renal) was 14.3 µM and the GI50 (MDA-MB-435) was 0.985 µM. For the same compound, the TGI (MDA-MB-435) was 2.7 µM, the GI50 (HOP-62 NSCLC) was 3.77 µM and the TGI (HOP-62 NSCLC) was 12.8 µM. It also gave a GI50 (NCI-H23 lung) of 2.82 µM, a TGI (NCI-H23 lung) of 12 µM and a GI50 (HL-60(TB) leukemia) of 0.822 µM. It also gave a TGI (HL-60(TB) leukemia) of 3.08 µM, a GI50 (M14 melanoma) of 1.2 µM and a TGI (M14 melanoma) of 2.78 µM. For the same compound, the GI50 (SR leukemia) was 0.571 µM, the TGI (SR leukemia) was 2.04 µM and the GI50 (SF-539 CNS) was 2.07 µM. For the same compound, the TGI (SF-539 CNS) was 6.21 µM, the GI50 (SF-268 CNS) was 3.27 µM and the TGI (SF-268 CNS) was 12.2 µM. For the same compound, the GI50 (CAKI-1 renal) was 2.56 µM, the TGI (CAKI-1 renal) was 7.69 µM and the GI50 (SW-620 colon) was 6.05 µM. It also gave a TGI (SW-620 colon) of 29.9 µM, a GI50 (HS 578T breast) of 0.142 µM and a TGI (HS 578T breast) of 8.09 µM. The GI50 (NCI-H226 lung) was 4.61 µM, the TGI (NCI-H226 lung) was 16.5 µM and the GI50 (HCC-2998 colon) was 2.43 µM. For the same compound, the TGI (HCC-2998 colon) was 9.33 µM, the GI50 (DU-145 prostate) was 1.92 µM and the TGI (DU-145 prostate) was 8.1 µM. For the same compound, the GI50 (A498 renal) was 0.612 µM, the TGI (A498 renal) was 4.07 µM and the GI50 (BT-549 breast) was 3.03 µM. It also gave a TGI (BT-549 breast) of 8.86 µM, a GI50 (MCF7 breast) of 1.98 µM and a TGI (MCF7 breast) of 7.01 µM. It also gave a GI50 (K-562 leukemia) of 2.1 µM, a TGI (K-562 leukemia) of 14.1 µM and a GI50 (MOLT-4 leukemia) of 1.8 µM. For the same compound, the TGI (MOLT-4 leukemia) was 3.99 µM, the GI50 (MDA-MB-231 breast) was 1.83 µM and the TGI (MDA-MB-231 breast) was 5.67 µM. It also gave a GI50 (SF-295 CNS) of 2.13 µM, a TGI (SF-295 CNS) of 13 µM and a GI50 (SK-OV-3 ovarian) of 1.8 µM. It also gave a TGI (SK-OV-3 ovarian) of 8.57 µM, a GI50 (UACC-257 melanoma) of 8.52 µM and a TGI (UACC-257 melanoma) of 27.4 µM. The GI50 (UO-31 renal) was 7.9 µM, the TGI (UO-31 renal) was 29.8 µM and the GI50 (HT29 colon) was 2.08 µM. It also gave a TGI (HT29 colon) of 34 µM, a GI50 (CCRF-CEM leukemia) of 1.38 µM and a TGI (CCRF-CEM leukemia) of 5.42 µM. For the same compound, the GI50 (OVCAR-5 ovarian) was 3.38 µM, the TGI (OVCAR-5 ovarian) was 21 µM and the GI50 (786-0 renal) was 1.92 µM. For the same compound, the TGI (786-0 renal) was 7.74 µM, the GI50 (SN12C renal) was 2.77 µM and the TGI (SN12C renal) was 9.89 µM. It also gave a GI50 (IGROV1 ovarian) of 4 µM, a TGI (IGROV1 ovarian) of 37.7 µM and a GI50 (HCT-15 colon) of 1.87 µM. It also gave a TGI (HCT-15 colon) of 11.6 µM, a GI50 (PC-3 prostate) of 2.13 µM and a TGI (PC-3 prostate) of 8.54 µM. The GI50 (SK-MEL-5 melanoma) was 2.67 µM, the TGI (SK-MEL-5 melanoma) was 11.6 µM and the GI50 (OVCAR-8 ovarian) was 3.8 µM. The TGI (OVCAR-8 ovarian) was 8.16 µM, the GI50 (U251 CNS) was 2.67 µM and the TGI (U251 CNS) was 26.8 µM. For the same compound, the GI50 (NCI/ADR-RES ovarian) was 2.54 µM, the TGI (NCI/ADR-RES ovarian) was 18.1 µM and the GI50 (SNB-75 CNS) was 2.88 µM. The TGI (SNB-75 CNS) was 14.4 µM, the GI50 (KM12 colon) was 1.43 µM and the TGI (KM12 colon) was 5.94 µM. The GI50 (SK-MEL-28 melanoma) was 5.84 µM, the TGI (SK-MEL-28 melanoma) was 27.1 µM and the GI50 (NCI-H522 lung) was 8.96 µM. It also gave a TGI (NCI-H522 lung) of 34.6 µM, a GI50 (TK-10 renal) of 1.47 µM and a TGI (TK-10 renal) of 7.93 µM. It also gave a GI50 (HOP-92 NSCLC) of 1.12 µM, a TGI (HOP-92 NSCLC) of 3.61 µM and a GI50 (HCT-116 colon) of 2.08 µM. For the same compound, the TGI (HCT-116 colon) was 8.62 µM, the GI50 (SK-MEL-2 melanoma) was 8.14 µM and the TGI (SK-MEL-2 melanoma) was 40.7 µM. The GI50 (NCI-H460 lung) was 2.64 µM, the TGI (NCI-H460 lung) was 17.8 µM and the GI50 (A549 NSCLC) was 4.55 µM. It also gave a TGI (A549 NSCLC) of 20.8 µM, a GI50 (RPMI-8226 leukemia) of 0.943 µM and a TGI (RPMI-8226 leukemia) of 2.41 µM. It also gave a GI50 (EKVX NSCLC) of 6.02 µM, a TGI (EKVX NSCLC) of 23.8 µM and a GI50 (UACC-62 melanoma) of 2.57 µM. The TGI (UACC-62 melanoma) was 9.19 µM.
